Laboratory results from patent US20260306434A1, “VERY LONG CHAIN FATTY ACIDS FOR USE IN MINERALIZATION” (Epax Norway AS, priority 2023, published 2026).
Blank lines part the entries; values can stand above or below the molecule they belong to.

Key:
[1] = system: hFOB 1.19 human foetal osteoblasts; test: Fatty acid composition of hFOB cells (Ex. 4); format: cell-based; conditions: 2 μM; 7 days
Method: Total lipids were extracted from homogenised tissue or sonicated extracts of cells (for Ex. 4) following the method previously described by Folch et al., For both skin tissue and whole-body analyses, pooled samples from each tank (n=10 per tank, n=30 per diet group) were analysed for lipid composition. For cells, three individual cell culture flasks per treatment group were analysed. The fatty acid composition was analysed using the method described by Mason and Waller.
Methyl esters were separated and analysed in a GC (Hewlett Packard 6890; HP) with a split injector using an SGE BPX70 capillary column (length, 60 m; internal diameter, 0.25 mm; and film thickness, 0.25 um; SGE Analytical Science) flame ionsation detector, and HP chem Station software. Helium was used as the carrier gas, and both the injector and detector temperatures were 280° C. The oven temperature started at 50° C. for 1.2 min and then increased […] to 170° C. at a rate of 4° C./min, followed by 200° C. at a rate of 0.5° C./min, and finally 280° C. at a rate of 10° C./min. The individual fatty acid peaks were identified by comparing the retention times with validated standards; GLC reference 463 and 85 (Nu-chek Prep, Elysian, MN). The absolute amount of fatty acid per gram of tissue or cells was calculated using 23:0 methyl ester as an internal standard (IS). Unidentified peaks were not included in the total fatty acid calculation.
The VLC-PUFA composition of cells and whole-body extracts was analysed using a Scion TQ 8300 GC-MS/MS with a split/splitless injector (splitless 1 min) with a Restek Rxi-5 ms capillary column (length, 30 m; internal diameter, 0.25 mm; and film thickness, […]). Hydrogen was used as the carrier gas, with split-injection and detector temperatures of 250° C. and 270° C., respectively. The oven temperature started at 90° C. for 1.5 min and was ramped up to 220° C. at a rate of 30° C./min, then 275° C. at a rate of 1.21° C./min, and finally 310° C. at a rate of 6.5° C./min. The instrument was run in MRM mode with 79.1-77.1 and 79-55.1 as transitions for VLC PUFAs and 143.1-55.1 for C23:0. The response factor for DHA (relative to C23:0) was calculated using standard solutions of known concentrations of DHA and C23:0. As no standards for VLC fatty acids were available for the VLC-PUFAs, the same response factor as for DHA was assumed and used to calculate concentrations of VLC-PUFAs.
A human foetal osteoblast cell line (hFOB 1.19, ATCC, CRL-11372) was used in the experiments. Cells were cultured according to the manufacturer's instructions. Basal medium comprised a 1:1 mixture of Ham's F12 Medium Dulbecco's Modified Eagle's Medium with 2.5 mM L-glutamine (without phenol red) (Sigma-Aldrich, Darmstadt, Germany). Complete growth medium was prepared using 0.3 mg/mL G418 (Sigma-Aldrich, Darmstadt, Germany) supplemented with 10% foetal bovine serum (T7524, Sigma-Aldrich, Darmstadt, Germany). Cells were incubated at 34° C., with 5% C02 (In-Vitro Cell NU-8600E, NUAIRE, Minnesota, U.S.) and sub-cultured at approximately 80% confluency at a ratio of 1:4. Growth medium was renewed every 2-3 days. Cells cultured for differentiation were supplemented with osteogenic factors, ascorbic acid (100 μg/mL; A8960, Sigma-Aldrich, Darmstadt, Germany) and β-glycerophosphate (10 mM; G9422, Sigma-Aldrich, Darmstadt, Germany). Once the cells reached confluency, the temperature was increased to 37° C. to stop proliferation and induce differentiation. The osteogenic media was renewed every 2-3 days.
Fatty acids were added to the growth media in the form of their sodium salts bound to bovine serum albumin (BSA, Sigma-Aldrich, Darmstadt, Germany; 2.7:1 molar ratio). The pH was adjusted to 7 using NH4OH. n-3 VLC-PUFA (the VLC-PUFA concentrate of Table 3.1, right column) and DHA (Sigma-Aldrich, Darmstadt, Germany) concentrates were prepared as 1 and 8 mM stocks, respectively, and were added to the media at concentrations of 1 and 2 μM. […]

[2] = system: primary Atlantic salmon keratocytes; test: Cell migration of primary Atlantic salmon keratocytes from scales (Ex. 2); format: cell-based; conditions: 25 ng/mL; 24 h; vs control (P=0.0145)
Method: In these cell culture experiments fatty acids were added to growth media in the form of their sodium salts bound to bovine serum albumin (BSA; 2.7:1 molar ratio). The pH was adjusted to 7 using NH4OH. DHA was purchased from Sigma (Sigma Aldrich, Darmstadt, Germany). The n-3 VLCPUFA 26:6 n-3 and VLC-Conc2 (Table 1.1) were both prepared as 1-mM stock solutions and DHA was prepared as an 8-mM stock solution. All fatty acid solutions were stored at −80° C.
Growth medium (GM) was prepared as L-15 (11544436, Fischer Scientific) supplemented with 5% FBS (F2442, Sigma-Aldrich), 1% anti/anti (A5955, Sigma-Aldrich; 15240062 Fischer Scientific), and 1% HEPES (H0887, Sigma-Aldrich). The test substrates added were either 25 ng/mL fibroblast growth factor (FGF) (106096-93-9, Sigma-Aldrich), 10 μM VLCPUFA (26:6 n-3), or 20 μM VLCPUFA (26:6 n-3). Controls were left untreated. […]
The day after isolation, all wells were inspected under a microscope to determine the migration potential of the scales. All scales with migration were counted to determine the immediate effect of the VLCPUFA on cell migration. […] The number of scales with cell migration was counted and divided by the number of attached scales to calculate the percentage of scales with cell migration, as attachment is a prerequisite for cell migration. […]
For histology, five fish from each tank, giving a total of 15 fish per treatment, were analysed. […]

14:0, mean [1]: 38.3 μg/g sample
16:0, mean [1]: 648.5 μg/g sample
16:2 n-6, mean [1]: 52.5 μg/g sample
17:0, mean [1]: 12.5 μg/g sample
18:0, mean [1]: 315.8 μg/g sample
18:1 n-7, mean [1]: 135.0 μg/g sample
18:1 n-9, mean [1]: 554.6 μg/g sample
18:2 n-6, mean [1]: 40.6 μg/g sample
18:3 n-6, mean [1]: 11.5 μg/g sample
20:0, mean [1]: 10.1 μg/g sample
20:1 n-9, mean [1]: 16.2 μg/g sample
20:1 n-11, mean [1]: 7.1 μg/g sample
20:2 n-6, mean [1]: 18.8 μg/g sample
20:3 n-6, mean [1]: 20.6 μg/g sample
20:4 n-3, mean [1]: 8.8 μg/g sample
20:4 n-6, mean [1]: 106.7 μg/g sample
20:5 n-3, mean [1]: 19.3ab μg/g sample
22:0, mean [1]: 7.3 μg/g sample
22:4 n-6, mean [1]: 13.7 μg/g sample
22:5 n-3, mean [1]: 26.2 μg/g sample
24:1 n-9, mean [1]: 3.9 μg/g sample
24:5 n-3, mean [1]: 76.5 μg/g sample
24:6 n-3, mean [1]: 56.5 μg/g sample
26:5 n-3, mean [1]: 1.7ab μg/g sample
26:6 n-3, mean [1]: 3.3ab μg/g sample
28:8 n-3, mean [1]: 0.0a μg/g sample
SUM EPA/DHA, mean [1]: 115.6b μg/g sample
SUM FA, mean [1]: 2670.3 μg/g sample
Sum of MUFAs, mean [1]: 871.5 μg/g sample
Sum of SFAs, mean [1]: 1045.0 μg/g sample
Sum of n-3 PUFAs, mean [1]: 164.0ab μg/g sample
Sum of n-6 PUFAs, mean [1]: 226.2 μg/g sample
Sum others, mean [1]: 168.3 μg/g sample
Molecule: CC/C=C\C/C=C\C/C=C\C/C=C\C/C=C\C/C=C\CCC(=O)O [DHA, docosahexaenoic acid]

Molecule: fibroblast growth factor [FGF]
scales with cell migration [2]: significant difference
